Measurements from ChEMBL document CHEMBL1671658, “VanA-type vancomycin-resistant Staphylococcus aureus” (2009).
In brackets after ≈: the same amount, converted by molar mass.

Columns and labels:
Staphylococcus aureus [1] = test: Antibacterial activity against VanA-type vancomycin-resistant Staphylococcus aureus isolate 1 harboring vanA operon
Staphylococcus aureus [2] = test: Antibacterial activity against VanA-type vancomycin-resistant Staphylococcus aureus isolate 2 harboring vanA operon
Staphylococcus aureus [3] = test: Antibacterial activity against VanA-type vancomycin-resistant Staphylococcus aureus isolate 3 harboring vanA operon
Staphylococcus aureus [4] = test: Antibacterial activity against high-level-resistant vancomycin-resistant Staphylococcus aureus harboring Tn1546 element

With `CN[C@H](CC(C)C)C(=O)N[C@H]1C(=O)N[C@@H](CC(N)=O)C(=O)N[C@H]2C(=O)N[C@H]3C(=O)N[C@H](C(=O)N[C@H](C(=O)O)c4cc(O)cc(O)c4-c4cc3ccc4O)[C@H](O)c3ccc(c(Cl)c3)Oc3cc2cc(c3O[C@@H]2O[C@H](CO)[C@@H](O)[C@H](O)[C@H]2O[C@H]2C[C@](C)(N)[C@H](O)[C@H](C)O2)Oc2ccc(cc2Cl)[C@H]1O` [VANCOMYCIN] the MIC (Staphylococcus aureus [1]) was > 256 µg/mL, the MIC (Staphylococcus aureus [2]) was 32 µg/mL (≈ 22.1 µM) and the MIC (Staphylococcus aureus [3]) was 64 µg/mL (≈ 44.2 µM). The MIC (Staphylococcus aureus [4]) was > 256 µg/mL.
